Test results: ChEMBL document CHEMBL5608186, “Design, synthesis and structure-activity relationships of novel non-ketolides: 9-Oxime clarithromycin featured with seven-to thirteen-atom-length diamine linkers at 3-OH” (Eur J Med Chem, 2024)
In brackets after ≈: the same amount, converted by molar mass.

Legend:
Type in all cases: functional
Staphylococcus aureus [1] = assay: Bactericidal activity against methicillin-resistant Staphylococcus aureus PU 20 harboring c-ermA gene incubated for 16 to 20 hrs by CLSI based broth microdilution method; conditions: time 16-20 hrs
Staphylococcus aureus [2] = assay: Antibacterial activity against methicillin-resistant Staphylococcus aureus PU 20 harboring c-ermA gene incubated for 16 to 20 hrs by CLSI based broth microdilution method; conditions: time 16-20 hrs
Staphylococcus aureus [3] = assay: Selectivity ratio of MBC for methicillin-resistant Staphylococcus aureus PU 32 harboring i-ermA gene to MIC for methicillin-resistant Staphylococcus aureus PU 32 harboring i-ermA gene
Staphylococcus aureus [4] = assay: Bactericidal activity against methicillin-resistant Staphylococcus aureus PU 32 harboring i-ermA gene incubated for 16 to 20 hrs by CLSI based broth microdilution method; conditions: time 16-20 hrs
Staphylococcus aureus [5] = assay: Antibacterial activity against methicillin-resistant Staphylococcus aureus PU 32 harboring i-ermA gene incubated for 16 to 20 hrs by CLSI based broth microdilution method; conditions: time 16-20 hrs
Streptococcus pyogenes [6] = assay: Selectivity ratio of MBC for Streptococcus pyogenes 01-968 harboring i-ermB gene to MIC for Streptococcus pyogenes 01-968 harboring i-ermB gene
Streptococcus pyogenes [7] = assay: Bactericidal activity against Streptococcus pyogenes 01-968 harboring i-ermB gene incubated for 16 to 20 hrs by CLSI based broth microdilution method; conditions: time 16-20 hrs
Streptococcus pyogenes [8] = assay: Antibacterial activity against Streptococcus pyogenes 01-968 harboring i-ermB gene incubated for 16 to 20 hrs by CLSI based broth microdilution method; conditions: time 16-20 hrs
Haemophilus influenzae [9] = assay: Selectivity ratio of MBC for Haemophilus influenzae ATCC 49247 to MIC for Haemophilus influenzae ATCC 49247
Haemophilus influenzae [10] = assay: Bactericidal activity against Haemophilus influenzae ATCC 49247 incubated for 16 to 20 hrs by CLSI based broth microdilution method; conditions: time 16-20 hrs
Haemophilus influenzae [11] = assay: Antibacterial activity against Haemophilus influenzae ATCC 49247 incubated for 16 to 20 hrs by CLSI based broth microdilution method; conditions: time 16-20 hrs
Streptococcus pneumoniae [12] = assay: Selectivity ratio of MBC for Streptococcus pneumoniae 07P390 harboring c-erm gene to MIC for Streptococcus pneumoniae 07P390 harboring c-erm gene
Streptococcus pneumoniae [13] = assay: Bactericidal activity against Streptococcus pneumoniae 07P390 harboring c-erm gene incubated for 16 to 20 hrs by CLSI based broth microdilution method; conditions: time 16-20 hrs
Streptococcus pneumoniae [14] = assay: Antibacterial activity against Streptococcus pneumoniae 07P390 harboring c-erm gene incubated for 16 to 20 hrs by CLSI based broth microdilution method; conditions: time 16-20 hrs
Streptococcus pneumoniae [15] = assay: Selectivity ratio of MBC for Streptococcus pneumoniae PU 09 harboring mef gene to MIC for Streptococcus pneumoniae PU 09 harboring mef gene
Streptococcus pneumoniae [16] = assay: Bactericidal activity against Streptococcus pneumoniae PU 09 harboring mef gene incubated for 16 to 20 hrs by CLSI based broth microdilution method; conditions: time 16-20 hrs
Streptococcus pneumoniae [17] = assay: Selectivity ratio of MBC for Streptococcus pneumoniae ATCC 49619 to MIC for Streptococcus pneumoniae ATCC 49619
Streptococcus pneumoniae [18] = assay: Antibacterial activity against Streptococcus pneumoniae PU 09 harboring mef gene incubated for 16 to 20 hrs by CLSI based broth microdilution method; conditions: time 16-20 hrs
Streptococcus pneumoniae [19] = assay: Bactericidal activity against Streptococcus pneumoniae ATCC 49619 incubated for 16 to 20 hrs by CLSI based broth microdilution method; conditions: time 16-20 hrs
Streptococcus pneumoniae [20] = assay: Antibacterial activity against Streptococcus pneumoniae ATCC 49619 incubated for 16 to 20 hrs by CLSI based broth microdilution method; conditions: time 16-20 hrs
Staphylococcus aureus [21] = assay: Selectivity ratio of MBC for methicillin-resistant Staphylococcus aureus PU 20 harboring c-ermA gene to MIC for methicillin-resistant Staphylococcus aureus PU 20 harboring c-ermA gene

Compound | MBC (Staphylococcus aureus [1]) [µg/mL] | MIC (Staphylococcus aureus [2]) [µg/mL] | Selectivity ratio (Staphylococcus aureus [3]) | MBC (Staphylococcus aureus [4]) [µg/mL] | MIC (Staphylococcus aureus [5]) [µg/mL] | Selectivity ratio (Streptococcus pyogenes [6]) | MBC (Streptococcus pyogenes [7]) [µg/mL] | MIC (Streptococcus pyogenes [8]) [µg/mL] | Selectivity ratio (Haemophilus influenzae [9]) | MBC (Haemophilus influenzae [10]) [µg/mL] | MIC (Haemophilus influenzae [11]) [µg/mL] | Selectivity ratio (Streptococcus pneumoniae [12]) | MBC (Streptococcus pneumoniae [13]) [µg/mL] | MIC (Streptococcus pneumoniae [14]) [µg/mL] | Selectivity ratio (Streptococcus pneumoniae [15]) | MBC (Streptococcus pneumoniae [16]) [µg/mL] | Selectivity ratio (Streptococcus pneumoniae [17]) | MIC (Streptococcus pneumoniae [18]) [µg/mL] | MBC (Streptococcus pneumoniae [19]) [µg/mL] | MIC (Streptococcus pneumoniae [20]) [µg/mL] | further results
CC[C@H]1OC(=O)[C@H](C)[C@@H](OC(=O)CCNCCCCNc2cc3c(cc2F)c(=O)c(C(=O)O)cn3C2CC2)[C@H](C)[C@@H](O[C@@H]2O[C@H](C)C[C@H](N(C)C)[C@H]2O)[C@](C)(OC)C[C@@H](C)/C(=N\OCC#Cc2cncc(NC(C)=O)c2)[C@H](C)[C@H]2OC(=O)O[C@@]21C | > 256 | > 256 | 2 | 64 (≈ 53.8 µM) | 32 (≈ 26.9 µM) | >8 | > 4 | 0.5 (≈ 0.42 µM) | 1 | 4 (≈ 3.36 µM) | 4 (≈ 3.36 µM) | 8 | 0.5 (≈ 0.42 µM) | 0.06 (≈ 0.0504 µM) | 1 | 0.03 (≈ 0.0252 µM) | 1 | 0.03 (≈ 0.0252 µM) | 0.016 (≈ 0.0134 µM) | 0.016 (≈ 0.0134 µM) | –
CC[C@H]1OC(=O)[C@H](C)[C@@H](OC(=O)CCNCCCNc2cc3c(=O)c(C(=O)O)cn(C4CC4)c3cc2Cl)[C@H](C)[C@@H](O[C@@H]2O[C@H](C)C[C@H](N(C)C)[C@H]2O)[C@](C)(OC)C[C@@H](C)/C(=N\OC)[C@H](C)[C@H]2OC(=O)O[C@@]21C | 256 (≈ 247 µM) | 128 (≈ 124 µM) | >8 | > 256 | 32 (≈ 30.9 µM) | 4 | 16 (≈ 15.5 µM) | 4 (≈ 3.87 µM) | 1 | 256 (≈ 247 µM) | 256 (≈ 247 µM) | 2 | 16 (≈ 15.5 µM) | 8 (≈ 7.73 µM) | 1 | 2 (≈ 1.93 µM) | 2 | 2 (≈ 1.93 µM) | 0.5 (≈ 0.483 µM) | 0.25 (≈ 0.242 µM) | Selectivity ratio (Staphylococcus aureus [21]): 2
CC[C@H]1OC(=O)[C@H](C)[C@@H](OC(=O)CCNCCCCCCNc2cc3c(cc2F)c(=O)c(C(=O)O)cn3C2CC2)[C@H](C)[C@@H](O[C@@H]2O[C@H](C)C[C@H](N(C)C)[C@H]2O)[C@](C)(OC)C[C@@H](C)/C(=N\OC)[C@H](C)[C@H]2OC(=O)O[C@@]21C | > 256 | 128 (≈ 121 µM) | 4 | 16 (≈ 15.1 µM) | 4 (≈ 3.77 µM) | >8 | > 0.062 | ≤ 0.008 | 1 | 256 (≈ 241 µM) | 256 (≈ 241 µM) | 4 | 4 (≈ 3.77 µM) | 1 (≈ 0.943 µM) | 2 | 1 (≈ 0.943 µM) | 1 | 0.5 (≈ 0.472 µM) | 0.062 (≈ 0.0585 µM) | 0.062 (≈ 0.0585 µM) | –
CC[C@H]1OC(=O)[C@H](C)[C@@H](OC(=O)CCN2CCN(c3c(F)cc4c(=O)c(C(=O)O)cn(C5CC5)c4c3OC)CC2C)[C@H](C)[C@@H](O[C@@H]2O[C@H](C)C[C@H](N(C)C)[C@H]2O)[C@](C)(OC)C[C@@H](C)/C(=N\OCC#Cc2cncc(C(=O)NC)c2)[C@H](C)[C@H]2OC(=O)O[C@@]21C (stereo partly specified) | 32 (≈ 26 µM) | 32 (≈ 26 µM) | – | > 256 | > 256 | >8 | > 128 | 16 (≈ 13 µM) | 1 | 2 (≈ 1.62 µM) | 2 (≈ 1.62 µM) | >8 | > 128 | 16 (≈ 13 µM) | 4 | 4 (≈ 3.25 µM) | 2 | 1 (≈ 0.811 µM) | 1 (≈ 0.811 µM) | 0.5 (≈ 0.406 µM) | Selectivity ratio (Staphylococcus aureus [21]): 1
